Like-named read-outs stand apart in the source and are kept apart here.
How the values were obtained:
A431 = assay: Cell proliferation assay (CellTiter-Glo, 96 h), A431; type: cell-based; settings: Homo sapiens, A-431; 96-hour incubation
Procedure: (§1) In accordance with the invention, the substances were tested in cell-based assays for the ability of the substances of inhibiting tumour cell proliferation after a 96-hour incubation with the substance. Cell viability was tested using the CellTiter-Glo® luminescent cell viability assay (Promega). The cells were sown at a density of 2000-5000 cells/well (depending on the cell line) in 100 μl growth medium on 96-well microtitre plates. For each cell line examined, cells were sown on a separate plate to determine the luminescence at t=0 hours and t=96 hours. After overnight incubation at 37° C., the luminescence values for the t=0 samples were determined. The dose plates for the t=96 hours points in time were treated with substances diluted with growth medium. The cells were then incubated at 37° C. for 96 hours, and the luminescence values for the t=96 hours sample were then determined. For data analysis, the t=0 values were subtracted from the t=96 hour values for treated and untreated samples. The differences in luminescence in percent between substance-treated samples and control values were used to determine the growth inhibition in percent.
(§2) The substances were tested in the following cell lines which represent the stated indications in an exemplary manner: […]

MCF7 = assay: Cell proliferation assay (CellTiter-Glo, 96 h), MCF7; type: cell-based; settings: Homo sapiens, MCF7; Table 7; 96-hour incubation
Outline: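 CellTiter-Glo luminescence measured at t=0 (after overnight attachment) and after 96 h compound exposure at 37° C. Growth inhibition in percent calculated from t=0-corrected signals of treated versus untreated wells. Seeding density 2000-5000 cells/well, line-dependent.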

HCC-1937 = assay: Cell proliferation assay (CellTiter-Glo, 96 h), HCC-1937; type: cell-based; settings: Homo sapiens, HCC1937; 96-hour incubation
Procedure: as §1, §2

MDA-MB-436 = assay: Cell proliferation assay (CellTiter-Glo, 96 h), MDA-MB-436; type: cell-based; settings: Homo sapiens, MDA-MB-436; 96-hour incubation
Procedure: as §1, §2

[1] = biological target: human ACC2 (acetyl-coenzyme A carboxylase 2) (Homo sapiens, UniProt O00763); assay: Human ACC2 enzyme assay, Assay B2 (ADP-Glo);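 note: human ACC2 activity read as ADP product, detected by luciferase glow luminescence after residual ATP removal, enzyme near 2 ng/µl in linear range, detection steps at 22 °C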
Miapaca = assay: Cell proliferation assay (CellTiter-Glo, 96 h), Miapaca; type: cell-based; settings: Homo sapiens, MIA PaCa-2; 96-hour incubation
Procedure: as §1, §2

[2] = tested on: malonyl-CoA in a tumour (human MCF-7 breast cancer cells); assay: Mode-of-action experiment: intratumour malonyl-CoA in MCF-7 tumours after oral administration; type: in vivo, female nude mice (NMRI-nude (nu/nu)); settings: Mus musculus, MCF7, po; after 7 h, 10 mg/kg, vs Vehicle
Procedure: Mode-of-Action Experiment
Prior to the determination of the activity in the MCF-7 model, some of the test substances were examined in a “mode of action” experiment. The principle of this experiment is that short-term application of a test substance capable of inhibiting ACC1 and/or ACC2 in a living organism after oral administration reduces malonyl-CoA in a tumour. To this end, in the experiment 2 million human MCF-7 breast cancer cells were injected subcutaneously into female nude mice (NMRI-nude (nu/nu) mice, Taconic M&B A/S, 1 day beforehand administration of a pellet for the release of oestrogen over a period of at least 60 days). Once the tumour extended to an area of about 60-70 mm^2, the test substance was administered orally over a period of 1-3 days, and at defined points in time the intratumour content of malonyl-CoA was then determined and compared to the vehicle control. The method is described in Anal Chem 2008 Aug. 1; 80(15):5736-42. Epub 2008 Jul. 9.).

[3] = biological target: T1, human ACC1 (acetyl-coenzyme A carboxylase alpha transcript variant 1) (Homo sapiens, UniProt Q13085); assay: Human ACC1 enzyme assay, Assay B1 (ADP-Glo); type: biochemical
T1 construct: FLAG (C); made in house; host or cells: baculovirus-infected insect cells (Hi5)

MDA-MB-468 = assay: Cell proliferation assay (CellTiter-Glo, 96 h), MDA-MB-468; type: cell-based; settings: Homo sapiens, MDA-MB-468; 96-hour incubation
Procedure: as §1, §2

KM12 = assay: Cell proliferation assay (CellTiter-Glo, 96 h), KM12; type: cell-based; settings: Homo sapiens, 96-hour incubation
Procedure: as §1, §2

DLD1 = assay: Cell proliferation assay (CellTiter-Glo, 96 h), DLD1; type: cell-based; settings: Homo sapiens, DLD-1; 96-hour incubation
Procedure: as §1, §2

MDA-MB-435 = assay: Cell proliferation assay (CellTiter-Glo, 96 h), MDA-MB-435; type: cell-based; settings: Homo sapiens, 96-hour incubation
Procedure: as §1, §2

PLC/PRF5 = assay: Cell proliferation assay (CellTiter-Glo, 96 h), PLC/PRF5; type: cell-based; settings: Homo sapiens, PLC-PRF-5; 96-hour incubation
Procedure: as §1, §2

PC3 = assay: Cell proliferation assay (CellTiter-Glo, 96 h), PC3; type: cell-based; settings: Homo sapiens, PC-3; 96-hour incubation
Procedure: as §1, §2

NCI-H2135 = assay: Cell proliferation assay (CellTiter-Glo, 96 h), NCI-H2135; type: cell-based; settings: 96-hour incubation; read-out: NCLH 2135 IC50
Procedure: as §1, §2

786 O = assay: Cell proliferation assay (CellTiter-Glo, 96 h), 786 O; type: cell-based; settings: Homo sapiens, 786-0; 96-hour incubation
Procedure: as §1, §2

Du145 = assay: Cell proliferation assay (CellTiter-Glo, 96 h), Du145; type: cell-based; settings: Homo sapiens, DU-145; 96-hour incubation
Procedure: as §1, §2

ECC1 = assay: Cell proliferation assay (CellTiter-Glo, 96 h), ECC1; type: cell-based; settings: Homo sapiens, ECC-1; 96-hour incubation
Procedure: as §1, §2

recombinant human ACC1 = recombinant human ACC1 (Homo sapiens, UniProt Q13085); assay: Human ACC1 enzyme assay, Assay A1 (HTRF ADP immunoassay);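 note: ADP generated by the enzyme quantified via competitive time-resolved FRET, read as europium cryptate to d2 energy transfer after 1 h at 22 °C with labelled ADP tracer and anti-ADP antibody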
HEC1A = assay: Cell proliferation assay (CellTiter-Glo, 96 h), HEC1A; type: cell-based; settings: Homo sapiens, HEC-1-A; 96-hour incubation
Procedure: as §1, §2

[4] = In-vitro dissolution of the pharmaceutical formulation (USP apparatus 2, paddle method); type: physicochemical; settings: pH 1 and pH 6.8 (reason for adding SDS)
Procedure: c) In-Vitro Dissolution of the Pharmaceutical Formulation […] The release test was in each case carried out in 900 ml of various media at 37° C. and with a stirrer speed of 75 rotations per minute (FIG. 2). Each determination was carried out in three replications. The content was determined by HPLC.

[5] = biological target: acetyl-CoA carboxylase 2 (ACC2) (Homo sapiens, UniProt O00763); assay: Human ACC2 enzyme assay, Assay A2 (HTRF ADP immunoassay);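 note: ADP generated by ACC2 quantified via competitive time-resolved FRET between europium cryptate anti-ADP antibody and d2-tagged ADP, enzyme kept in linear range near 0.6 ng/µl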
[6] = Assay B1, read-out: ACC 1 (=B1) IC50

Chain of human ACC2 (acetyl-coenzyme A carboxylase 2) (O00763 27-2458 limits assumed): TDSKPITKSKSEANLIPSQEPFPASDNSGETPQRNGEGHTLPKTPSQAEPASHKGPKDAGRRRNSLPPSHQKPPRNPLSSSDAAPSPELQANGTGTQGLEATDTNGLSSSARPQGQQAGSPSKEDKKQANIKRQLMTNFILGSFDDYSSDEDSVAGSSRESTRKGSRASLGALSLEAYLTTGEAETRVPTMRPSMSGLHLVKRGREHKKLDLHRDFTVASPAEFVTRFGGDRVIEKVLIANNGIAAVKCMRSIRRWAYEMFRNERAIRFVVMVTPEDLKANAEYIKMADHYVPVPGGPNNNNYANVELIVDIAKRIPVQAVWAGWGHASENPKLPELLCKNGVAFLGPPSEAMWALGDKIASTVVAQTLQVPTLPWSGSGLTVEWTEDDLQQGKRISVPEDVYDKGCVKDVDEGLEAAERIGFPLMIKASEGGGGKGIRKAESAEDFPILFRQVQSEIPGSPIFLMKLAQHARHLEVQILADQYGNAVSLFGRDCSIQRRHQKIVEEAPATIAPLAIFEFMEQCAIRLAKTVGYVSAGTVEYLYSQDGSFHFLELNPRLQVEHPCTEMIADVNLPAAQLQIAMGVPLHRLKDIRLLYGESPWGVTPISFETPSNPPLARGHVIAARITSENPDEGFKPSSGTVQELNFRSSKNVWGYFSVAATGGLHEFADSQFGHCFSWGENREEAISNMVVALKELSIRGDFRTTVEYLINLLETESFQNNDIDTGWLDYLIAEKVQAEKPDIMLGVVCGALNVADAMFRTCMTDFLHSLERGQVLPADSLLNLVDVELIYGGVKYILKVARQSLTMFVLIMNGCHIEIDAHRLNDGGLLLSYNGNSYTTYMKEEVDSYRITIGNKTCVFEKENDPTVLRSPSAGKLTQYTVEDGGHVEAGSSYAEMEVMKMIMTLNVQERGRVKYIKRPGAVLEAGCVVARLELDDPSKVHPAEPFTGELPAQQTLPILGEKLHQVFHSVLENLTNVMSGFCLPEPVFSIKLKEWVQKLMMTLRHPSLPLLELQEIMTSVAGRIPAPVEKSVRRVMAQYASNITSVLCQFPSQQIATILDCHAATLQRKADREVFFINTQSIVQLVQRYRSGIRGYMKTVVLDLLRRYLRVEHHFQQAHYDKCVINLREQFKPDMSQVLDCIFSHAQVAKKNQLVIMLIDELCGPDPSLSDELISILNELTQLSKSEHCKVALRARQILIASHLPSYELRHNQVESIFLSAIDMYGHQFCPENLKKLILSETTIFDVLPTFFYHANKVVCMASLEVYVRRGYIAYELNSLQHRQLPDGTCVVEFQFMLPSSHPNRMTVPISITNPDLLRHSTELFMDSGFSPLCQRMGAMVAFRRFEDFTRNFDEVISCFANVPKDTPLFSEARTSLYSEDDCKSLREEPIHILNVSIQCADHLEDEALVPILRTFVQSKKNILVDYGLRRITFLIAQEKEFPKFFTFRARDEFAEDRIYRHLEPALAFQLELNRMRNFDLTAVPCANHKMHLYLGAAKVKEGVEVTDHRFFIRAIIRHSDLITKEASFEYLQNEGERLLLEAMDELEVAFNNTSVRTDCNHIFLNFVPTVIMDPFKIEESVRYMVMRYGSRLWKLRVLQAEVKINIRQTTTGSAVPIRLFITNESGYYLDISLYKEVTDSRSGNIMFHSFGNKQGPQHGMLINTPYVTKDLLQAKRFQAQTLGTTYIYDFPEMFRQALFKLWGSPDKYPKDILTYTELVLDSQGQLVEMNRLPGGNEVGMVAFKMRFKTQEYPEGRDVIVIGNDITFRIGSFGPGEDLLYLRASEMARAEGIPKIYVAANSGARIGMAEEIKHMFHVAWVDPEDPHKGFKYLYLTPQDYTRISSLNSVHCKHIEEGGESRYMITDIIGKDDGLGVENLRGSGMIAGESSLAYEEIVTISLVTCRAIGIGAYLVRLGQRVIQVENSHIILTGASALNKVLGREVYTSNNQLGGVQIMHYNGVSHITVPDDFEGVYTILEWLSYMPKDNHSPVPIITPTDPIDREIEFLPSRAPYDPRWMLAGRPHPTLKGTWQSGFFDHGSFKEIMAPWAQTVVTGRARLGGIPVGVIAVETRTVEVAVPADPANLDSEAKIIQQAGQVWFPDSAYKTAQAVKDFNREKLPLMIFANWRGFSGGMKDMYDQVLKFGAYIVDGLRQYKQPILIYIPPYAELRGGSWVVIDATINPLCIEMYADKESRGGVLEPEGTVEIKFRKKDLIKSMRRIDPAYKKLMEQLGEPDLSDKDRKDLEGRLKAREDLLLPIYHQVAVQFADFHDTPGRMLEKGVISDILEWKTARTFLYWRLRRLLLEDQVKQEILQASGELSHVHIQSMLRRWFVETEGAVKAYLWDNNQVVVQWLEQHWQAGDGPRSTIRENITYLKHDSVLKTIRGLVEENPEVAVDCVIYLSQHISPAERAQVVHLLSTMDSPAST
Chain of acetyl-CoA carboxylase 2 (ACC2) (O00763 39-2458 limits assumed): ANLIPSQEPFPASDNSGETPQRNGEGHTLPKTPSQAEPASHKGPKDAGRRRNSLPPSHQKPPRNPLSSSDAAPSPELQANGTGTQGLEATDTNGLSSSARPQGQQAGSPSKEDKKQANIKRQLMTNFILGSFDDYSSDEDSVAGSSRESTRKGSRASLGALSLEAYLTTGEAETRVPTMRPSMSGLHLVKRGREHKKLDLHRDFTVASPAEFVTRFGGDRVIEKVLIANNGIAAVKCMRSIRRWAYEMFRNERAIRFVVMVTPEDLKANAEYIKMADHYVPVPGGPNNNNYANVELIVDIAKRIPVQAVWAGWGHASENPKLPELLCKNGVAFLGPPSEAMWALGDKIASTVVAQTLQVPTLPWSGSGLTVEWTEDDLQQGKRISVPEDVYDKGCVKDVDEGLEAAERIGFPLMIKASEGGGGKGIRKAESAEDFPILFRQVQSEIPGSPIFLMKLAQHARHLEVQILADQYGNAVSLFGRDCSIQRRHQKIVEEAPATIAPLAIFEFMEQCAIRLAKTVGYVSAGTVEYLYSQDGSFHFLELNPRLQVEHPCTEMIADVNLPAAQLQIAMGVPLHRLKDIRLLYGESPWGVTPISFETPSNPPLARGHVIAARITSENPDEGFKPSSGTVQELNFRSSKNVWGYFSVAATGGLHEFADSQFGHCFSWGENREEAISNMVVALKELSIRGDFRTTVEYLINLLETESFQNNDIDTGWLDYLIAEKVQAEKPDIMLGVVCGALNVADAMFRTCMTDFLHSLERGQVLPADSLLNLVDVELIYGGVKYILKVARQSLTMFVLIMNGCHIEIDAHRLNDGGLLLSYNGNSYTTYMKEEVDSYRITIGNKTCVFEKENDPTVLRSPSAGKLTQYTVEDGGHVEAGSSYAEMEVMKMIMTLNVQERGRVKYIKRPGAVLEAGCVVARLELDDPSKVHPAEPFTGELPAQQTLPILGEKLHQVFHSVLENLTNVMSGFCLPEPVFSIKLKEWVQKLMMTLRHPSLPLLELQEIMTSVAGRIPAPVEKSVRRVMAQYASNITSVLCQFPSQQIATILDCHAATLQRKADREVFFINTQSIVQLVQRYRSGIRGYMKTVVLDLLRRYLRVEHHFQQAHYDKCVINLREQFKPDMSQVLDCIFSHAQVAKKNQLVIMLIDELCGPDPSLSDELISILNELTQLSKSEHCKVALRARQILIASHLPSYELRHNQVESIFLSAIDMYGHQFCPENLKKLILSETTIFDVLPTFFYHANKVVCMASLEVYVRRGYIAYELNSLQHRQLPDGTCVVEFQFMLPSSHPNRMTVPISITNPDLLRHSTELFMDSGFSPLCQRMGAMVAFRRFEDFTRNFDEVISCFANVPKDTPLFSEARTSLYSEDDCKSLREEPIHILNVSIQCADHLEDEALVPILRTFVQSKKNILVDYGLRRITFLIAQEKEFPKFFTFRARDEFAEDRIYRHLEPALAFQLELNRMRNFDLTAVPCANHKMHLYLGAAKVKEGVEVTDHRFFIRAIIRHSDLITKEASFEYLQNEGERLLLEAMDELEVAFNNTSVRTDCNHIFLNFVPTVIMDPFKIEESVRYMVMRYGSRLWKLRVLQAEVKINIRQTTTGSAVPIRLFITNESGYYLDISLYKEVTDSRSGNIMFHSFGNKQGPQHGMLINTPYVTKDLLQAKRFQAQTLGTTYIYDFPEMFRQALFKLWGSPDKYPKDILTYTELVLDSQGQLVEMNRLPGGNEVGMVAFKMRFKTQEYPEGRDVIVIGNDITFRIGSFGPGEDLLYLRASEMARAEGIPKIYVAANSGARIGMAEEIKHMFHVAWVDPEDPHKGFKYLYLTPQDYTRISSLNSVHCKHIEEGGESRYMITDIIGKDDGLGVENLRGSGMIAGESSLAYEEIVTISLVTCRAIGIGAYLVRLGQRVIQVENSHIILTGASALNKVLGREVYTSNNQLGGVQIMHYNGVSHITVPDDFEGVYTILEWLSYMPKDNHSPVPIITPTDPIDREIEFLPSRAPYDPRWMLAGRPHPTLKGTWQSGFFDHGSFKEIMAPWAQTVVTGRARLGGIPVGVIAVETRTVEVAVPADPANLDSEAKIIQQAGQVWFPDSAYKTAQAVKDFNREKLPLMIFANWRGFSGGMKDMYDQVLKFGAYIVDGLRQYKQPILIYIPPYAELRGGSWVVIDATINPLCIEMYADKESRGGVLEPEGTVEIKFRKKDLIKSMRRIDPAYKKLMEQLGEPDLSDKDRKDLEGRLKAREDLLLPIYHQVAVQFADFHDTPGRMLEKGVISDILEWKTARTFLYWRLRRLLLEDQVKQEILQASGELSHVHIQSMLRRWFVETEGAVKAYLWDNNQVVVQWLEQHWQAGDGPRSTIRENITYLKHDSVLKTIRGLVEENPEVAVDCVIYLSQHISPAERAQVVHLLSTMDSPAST

Row | Structure (SMILES) | IC50 (MCF7) [nM] | IC50 [1] [nM] | inhibition in vivo at 10 mg/kg [2] [%] | IC50 [3, 6] [nM] | IC50 (KM12) [nM] | IC50 (PC3) [nM] | IC50 (Du145) [nM] | IC50 (ECC1) [nM] | IC50 (recombinant human ACC1) [nM] | IC50 (HEC1A) [nM] | IC50 [5] [nM] | other results
1 | COCC1CCC2(CC1)NC(=O)C(c1cc(-c3ccc(Cl)cc3)ccc1C)=C2O (stereo not drawn) [1-56, 3-(4′-chloro-4-methylbiphenyl-3-yl)-4-hydroxy-8-(methoxymethyl)-1-azaspiro[4.5]dec-3-en-2-one] | 30 | 672 | 84 | 202 |  |  |  |  |  |  |  | IC50 (A431): 214 nM; IC50 (HCC-1937): 171 nM; IC50 (MDA-MB-436): 84 nM; IC50 (Miapaca): 316 nM; IC50 (MDA-MB-468): 138 nM
2 | Cc1ccc(-c2ccc(Cl)cc2)cc1C1=C(O)C2(CCCCC2)NC1=O [1-77, 3-(4′-chloro-4-methylbiphenyl-3-yl)-4-hydroxy-1-azaspiro[4.5]dec-3-en-2-one] |  | 2590 | 96 |  | 80 | 31 | 51 | 257 |  |  |  | IC50 (DLD1): 875 nM; IC50 (MDA-MB-435): 140 nM; IC50 (PLC/PRF5): 3890 nM; IC50 [3]: 278 nM; IC50 (NCI-H2135): 33 nM; IC50 (786 O): 404 nM
3 | CO[C@H]1CC[C@]2(CC1)NC(=O)C(c1cc(-c3ccc(Cl)c(F)c3)ccc1C)=C2O [1-118, (5s,8s)-3-(4′-Chloro-3′-fluoro-4-methylbiphenyl-3-yl)-4-hydroxy-8-methoxy-1-azaspiro[4.5]dec-3-en-2-one] | 37 | 1380 |  | 102 | 275 | 25 | 39 | 221 | 129 | 1760 | 690 | solubility in dissolution media [4]: insufficient solubility
4 | Cc1ccc(-c2ccc(F)c(F)c2)cc1C1=C(O)[C@]2(CC[C@H](C(F)(F)F)CC2)NC1=O [1-128, (5s,8s)-3-(3′,4′-Difluoro-4-methylbiphenyl-3-yl)-4-hydroxy-8-(trifluoromethyl)-1-azaspiro[4.5]dec-3-en-2-one] | 33 | 4410 |  | 157 | 74 | 20 | 29 | 137 | 195 | 328 | 2740 | 
